The record followed here is patent publication US10093683B2, “Factor XIa inhibitors” (Merck Sharp & Dohme Corp., priority 2014, dated 2018).

The target in this assay is human Factor XIa (Homo sapiens (Human), UniProt P03951). The assay is described as follows: Factor XIa Assay. Format: biochemical. The conditions noted are these: purified human Factor XIa 40 pM, Z-Gly-Pro-Arg-AFC 100 μM, pH 7.4; read-out: FXIa Ki. In short, it runs like this: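 Purified human FXIa (40 pM final) hydrolysing fluorogenic Z-Gly-Pro-Arg-AFC (100 μM) in 50 mM HEPES pH 7.4, 150 mM NaCl, 5 mM CaCl2, 0.1% PEG 8000, at room temperature or 37° C. Initial velocities measured after enzyme–inhibitor equilibration; Ki from Vo/Vi versus [I], assuming competitive inhibition.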
Chain of human Factor XIa (P03951 388-625): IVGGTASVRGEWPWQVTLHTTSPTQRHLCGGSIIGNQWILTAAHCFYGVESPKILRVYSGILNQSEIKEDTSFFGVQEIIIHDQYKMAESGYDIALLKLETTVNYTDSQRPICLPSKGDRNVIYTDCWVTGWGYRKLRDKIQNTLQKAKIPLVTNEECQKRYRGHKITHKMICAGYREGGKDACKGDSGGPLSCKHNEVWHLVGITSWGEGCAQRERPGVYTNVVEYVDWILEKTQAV
Chain of human Factor XIa (P03951 19-387 partner): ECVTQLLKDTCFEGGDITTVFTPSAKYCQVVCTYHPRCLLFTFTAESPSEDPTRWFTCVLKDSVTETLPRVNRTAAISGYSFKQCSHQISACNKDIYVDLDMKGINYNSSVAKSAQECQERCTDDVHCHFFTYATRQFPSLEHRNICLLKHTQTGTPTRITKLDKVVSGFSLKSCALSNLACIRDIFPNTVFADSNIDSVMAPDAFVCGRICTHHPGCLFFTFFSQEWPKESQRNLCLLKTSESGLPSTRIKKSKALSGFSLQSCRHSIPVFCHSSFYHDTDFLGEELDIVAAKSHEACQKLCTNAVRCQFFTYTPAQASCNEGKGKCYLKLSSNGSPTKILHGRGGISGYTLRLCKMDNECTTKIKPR
Turning to `COC(=O)Nc1ccc(C(=O)N[C@@H](CC(=O)Nc2ccccn2)C(=O)N2CC[C@@]3(C2)OC(=O)Nc2ccc(Cl)cc23)cc1` [Example 90, methyl (4-(((S)-1-((R)-6-chloro-2-oxo-1,2-dihydrospiro[benzo[d][1,3]oxazine-4,3′-pyrrolidin]-1′-yl)-1,4-dioxo-4-(pyridin-2-ylamino)butan-2-yl)carbamoyl)phenyl)carbamate], the Ki was 57.4 nM.

As to `COC(=O)Nc1ccc(C(=O)N[C@@H](CC(=O)Nc2ccc(F)cc2)C(=O)N2CC[C@@]3(C2)OC(=O)Nc2ccc(Cl)cc23)cc1` [Example 91, methyl (4-(((S)-1-((R)-6-chloro-2-oxo-1,2-dihydrospiro[benzo[d][1,3]oxazine-4,3′-pyrrolidin]-1′-yl)-4-((4-fluorophenyl)amino)-1,4-dioxobutan-2-yl)carbamoyl)phenyl)carbamate], the inhibitory constant (Ki) is 144 nM.

For the compound `COC(=O)Nc1ccc(C(=O)N[C@@H](CC(=O)NS(=O)(=O)C2CC2)C(=O)N2CC[C@@]3(C2)OC(=O)Nc2ccc(Cl)cc23)cc1` [Example 92, methyl (4-(((S)-1-((R)-6-chloro-2-oxo-1,2-dihydrospiro[benzo[d][1,3]oxazine-4,3′-pyrrolidin]-1′-yl)-4-(cyclopropanesulfonamido)-1,4-dioxobutan-2-yl)carbamoyl)phenyl)carbamate], the Ki came out at 56.1 nM.

Take `COC(=O)Nc1ccc(C(=O)N[C@@H](CC(=O)NC2COC2)C(=O)N2CC[C@@]3(C2)OC(=O)Nc2ccc(Cl)cc23)cc1` [Example 93, methyl (4-(((S)-1-((R)-6-chloro-2-oxo-1,2-dihydrospiro[benzo[d][1,3]oxazine-4,3′-pyrrolidin]-1′-yl)-4-(oxetan-3-ylamino)-1,4-dioxobutan-2-yl)carbamoyl)phenyl)carbamate]: the inhibition constant Ki turned out to be 45.8 nM.

As to `COC(=O)Nc1ccc(C(=O)N[C@@H](CC(=O)N2CC(N(C)C)C2)C(=O)N2CCC[C@@]3(C2)OC(=O)Nc2ccc(Cl)cc23)cc1` [Example 96, methyl (4-(((S)-1-((R)-6-chloro-2-oxo-1,2-dihydrospiro[benzo[d][1,3]oxazine-4,3′-piperidin]-1′-yl)-4-(3-(dimethylamino)azetidin-1-yl)-1,4-dioxobutan-2-yl)carbamoyl)phenyl)carbamate], the Ki was determined as 203 nM.

`COC(=O)Nc1ccc(C(=O)N[C@@H](CCF)C(=O)N2CCC[C@@]3(C2)OC(=O)Nc2ccc(Cl)cc23)cc1` [Example 103, methyl (4-(((S)-1-((R)-6-chloro-2-oxo-1,2-dihydrospiro[benzo[d][1,3]oxazine-4,3′-piperidin]-1′-yl)-4-fluoro-1-oxobutan-2-yl)carbamoyl)phenyl)carbamate]: the Ki was found to be 52 nM.

As for `COC(=O)Nc1ccc(C(=O)N[C@@H](CC2CCC(F)(F)CC2)C(=O)N2CCC[C@@]3(C2)OC(=O)Nc2ccc(Cl)cc23)cc1` [Example 106, methyl (4-(((S)-1-((R)-6-chloro-2-oxo-1,2-dihydrospiro[benzo[d][1,3]oxazine-4,3′-piperidin]-1′-yl)-3-(4,4-difluorocyclohexyl)-1-oxopropan-2-yl)carbamoyl)phenyl)carbamate], the inhibition constant (Ki) was determined as 16.8 nM.

In the case of `COC(=O)Nc1ccc(C(=O)N[C@@H](CCNC(=O)C2CCC2)C(=O)N2CCC[C@@]3(C2)OC(=O)Nc2ccc(Cl)cc23)cc1` [Example 107, methyl (4-(((S)-1-((R)-6-chloro-2-oxo-1,2-dihydrospiro[benzo[d][1,3]oxazine-4,3′-piperidin]-1′-yl)-4-(cyclobutanecarboxamido)-1-oxobutan-2-yl)carbamoyl)phenyl)carbamate], the Ki turned out to be 50.7 nM.

Take `COC(=O)Nc1ccc(C(=O)N[C@@H](CCNC(=O)OC2CCC2)C(=O)N2CCC[C@@]3(C2)OC(=O)Nc2ccc(Cl)cc23)cc1` [Example 109, methyl (4-(((S)-1-((R)-6-chloro-2-oxo-1,2-dihydrospiro[benzo[d][1,3]oxazine-4,3′-piperidin]-1′-yl)-4-((cyclobutoxycarbonyl)amino)-1-oxobutan-2-yl)carbamoyl)phenyl)carbamate]: the Ki stood at 48.3 nM.

What is called Ki is a dissociation constant, usually derived from enzyme kinetics or from competition with a known ligand.
